Biological target: T1, K2P2.1(TREK-1) F172M (Mus musculus, UniProt P97438, F187M)
T1 construct: expressed in transfected cells; host or cells: Xenopus laevis oocytes, mRNA injected
Test: TEVC of K2P2.1(TREK-1) mutant F172M
Type: cell-based
Details: Xenopus oocytes
Text: To identify K2P2.1(TREK-1) M2 residues that might participate in the BL-1249 response, we mapped the residues that differ between K2P2.1(TREK-1) and K2P4.1(TRAAK) in the context of the K2P2.1(TREK-1) structure[6] (Figure 5B,C). Two K2P2.1(TREK-1) M2 residues stood out as candidates that could explain the reduction in BL-1249 response when the entire M2 helix was replaced with M2 from K2P4.1(TRAAK). One is at the M2/M4 interface and occurs between Phe172 and Arg297 via a π–cation interaction that would be lost when Phe172 is replaced with the equivalent K2P4.1(TRAAK) residue Met134 (Figure 5C, right inset). […] To assess the importance of these interactions in the context of BL-1249 response, we made the K2P2.1(TREK-1) mutants F172M and F185L and measured their responses to BL-1249 (Figure 5D). […]
Xenopus laevis oocytes were harvested in accordance with UCSF IACUC protocol AN129690 and digested in calcium-free ND-96 (96 mM NaCl, 2 mM KCl, 3.8 mM MgCl2) immediately following harvest, as previously described.[6],[10] […] Defolliculated stage V–VI oocytes were injected with 0.2–6.0 ng of mRNA in 50 nL, and currents were recorded 24–48 h after injection. mRNA was synthesized from plasmid DNA using mMessage mMachine Kit (T7 promoter, Ambion, Life Technologies) and purified using RNEasy Kit (Qiagen). […]

T1 sequence (P97438 1-411 isoform P97438-2 F172M): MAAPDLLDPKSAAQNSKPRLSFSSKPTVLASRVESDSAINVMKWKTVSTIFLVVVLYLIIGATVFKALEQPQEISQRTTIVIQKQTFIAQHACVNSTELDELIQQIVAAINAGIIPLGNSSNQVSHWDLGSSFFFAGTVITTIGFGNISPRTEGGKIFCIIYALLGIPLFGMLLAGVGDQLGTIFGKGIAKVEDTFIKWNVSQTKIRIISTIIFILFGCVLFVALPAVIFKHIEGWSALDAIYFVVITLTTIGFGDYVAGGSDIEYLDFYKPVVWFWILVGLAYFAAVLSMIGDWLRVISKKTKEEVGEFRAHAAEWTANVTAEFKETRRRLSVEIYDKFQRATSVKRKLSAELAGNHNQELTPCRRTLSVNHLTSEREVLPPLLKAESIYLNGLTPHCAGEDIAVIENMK

SMILES: c1ccc(-c2nnn[nH]2)c(Nc2cccc3c2CCCC3)c1 [BL-1249, (5,6,7,8-tetrahydro-naphthalen-1-yl)-[2-(1H-tetrazol-5-yl)-phenyl]-amine]
- EC50: 15 ± 2 µM

— publication PMC6302903, “Protein and Chemical Determinants of BL-1249 Action and Selectivity for K2P Channels” (ACS Chemical Neuroscience, 2018)
